{
  "source": "paper PMC11116414",
  "about": "“Impact of secretin receptor homo-dimerization on natural ligand binding” (Nature Communications, 2024)",
  "system": "cysteine-containing SecR(G264A,I268A) constructs",
  "experiment": "Cysteine trapping with SecR(G264A,I268A) cysteine constructs, intact COS-1 cells",
  "type": "binding, human",
  "settings": "for Intraloop labeling / Overall labeling: mean ± S.E.M.",
  "protocol": "In short, 15 µg of each peptide were incubated with 1 mCi of Na^125I for 15 s in borate buffer (pH 9.0) using solid-state N-chlorobenzene sulfonamide (iodination beads), and radioactive peptide products were separated and purified using reversed-phase HPLC, to yield a mono-iodinated peak with a specific radioactivity of 2000 Ci/mmol.\nModified secretin receptor constructs were prepared by mutagenesis of human SecR(G264A,I268A) by introducing cysteine residues to replace each natural residue in the N-terminal stalk region, (extracellular loop 1) ECL1, ECL2, and ECL3 regions of the receptor[21]. Mutagenesis was performed using the QuikChange site-directed mutagenesis kit from Stratagene (La Jolla, CA), with the products verified by direct DNA sequencing.\nCysteine trapping is a technique in which cysteine residues incorporated into distinct positions within a peptide ligand and within its receptor are allowed to form disulfide bonds when two free cysteines are in proximity to each other with necessary distance and geometry. As noted above, this was performed with secretin peptides incorporating cysteines in positions 2, 5, 6 and 7[20],[21], and with a series of SecR mutants incorporating cysteines in all extracellular domains (75 distinct constructs in a TM4 mutant non-dimerizing SecR background). COS-1 cells were grown to approximate 85% confluence in 24-well tissue culture plates, and transfected with cysteine mutant receptor constructs using the PEI method. Assays were started by washing the cells with DMEM containing 5% Fetal Clone II before being incubated with 200 μl radiolabeled cysteine-containing probes (approximately 100,000 cpm per well) for 1.5 h at room temperature. The assays were terminated by washing the cells with ice-cold PBS, pH 7.4, and mixing with 60 µl SDS Laemmli sample buffer not containing dithiothreitol (DTT). Lysates were run on 10% SDS-polyacrylamide gels. Gels were then dried, and bands of interest were visualized by autoradiography, and specific bands were identified, and intensities quantified using ImageJ. Sites having labeling above background were determined using one-way ANOVA with Dunnett’s post-test, with P < 0.001 considered to be significant. The apparent molecular weights of the receptor bands were determined by interpolation with the mobility of the appropriate ProSieve protein markers.",
  "note": "No end group written: not given here.",
  "data": [
    {"substance": "Cys^5-[Tyr^10]secretin(1-27) (HSDGCFTSEYSRLREGARLQRLLQGLV; not fully specified; ends and bridges not checked; also: radioiodinated; UniProt P09683 28-54, looked up, variant T5C L10Y) [Cys^5-Sec, cysteine-containing secretin agonist probe, radioiodinated for cysteine trapping]", "values": [
      {"measurement": "Intraloop labeling", "setting": "A290C, ECL2, n = 3-5", "value": "20.3±19.9", "unit": "percentage"},
      {"measurement": "Overall labeling", "setting": "A290C, ECL2, n = 3-5", "value": "15.5±15.2", "unit": "percentage"},
      {"measurement": "Intraloop labeling", "setting": "A292C, ECL2, n = 3-5", "value": "93.4±2.8", "unit": "percentage"},
      {"measurement": "Overall labeling", "setting": "A292C, ECL2, n = 3-5, Cys5 significant (P < 0.0001)", "value": "88.5±4.0", "unit": "percentage"},
      {"measurement": "Intraloop labeling", "setting": "A365C, ECL3, n = 3-5", "value": "90.4±5.8", "unit": "percentage"},
      {"measurement": "Overall labeling", "setting": "A365C, ECL3, n = 3-5, Cys5 significant (P < 0.0001)", "value": "82.4±7.9", "unit": "percentage"},
      {"measurement": "Intraloop labeling", "setting": "D282C, ECL2, n = 3-5", "value": "< 1", "unit": "percentage"},
      {"measurement": "Overall labeling", "setting": "D282C, ECL2, n = 3-5", "value": "< 1", "unit": "percentage"},
      {"measurement": "Intraloop labeling", "setting": "D287C, ECL2, n = 3-5", "value": "< 1", "unit": "percentage"},
      {"measurement": "Overall labeling", "setting": "D287C, ECL2, n = 3-5", "value": "< 1", "unit": "percentage"},
      {"measurement": "Intraloop labeling", "setting": "D364C, ECL3, n = 3-5", "value": "62.2±12.3", "unit": "percentage"},
      {"measurement": "Overall labeling", "setting": "D364C, ECL3, n = 3-5, Cys5 significant (P < 0.0001)", "value": "54.2±7.8", "unit": "percentage"},
      {"measurement": "Intraloop labeling", "setting": "E281C, ECL2, n = 3-5", "value": "< 1", "unit": "percentage"},
      {"measurement": "Overall labeling", "setting": "E281C, ECL2, n = 3-5", "value": "< 1", "unit": "percentage"},
      {"measurement": "Intraloop labeling", "setting": "E363C, ECL3, n = 3-5", "value": "< 1", "unit": "percentage"},
      {"measurement": "Overall labeling", "setting": "E363C, ECL3, n = 3-5", "value": "< 1", "unit": "percentage"},
      {"measurement": "Intraloop labeling", "setting": "E367C, ECL3, n = 3-5", "value": "< 1", "unit": "percentage"},
      {"measurement": "Overall labeling", "setting": "E367C, ECL3, n = 3-5", "value": "< 1", "unit": "percentage"},
      {"measurement": "Intraloop labeling", "setting": "E373C, ECL3, n = 3-5", "value": "< 1", "unit": "percentage"},
      {"measurement": "Overall labeling", "setting": "E373C, ECL3, n = 3-5", "value": "< 1", "unit": "percentage"},
      {"measurement": "Intraloop labeling", "setting": "F279C, ECL2, % of highest labeling within loop, n = 4 (Cys2), 5 (Cys5, Cys6), 3 (Cys7)", "value": "< 1", "unit": "percentage"},
      {"measurement": "Overall labeling", "setting": "F279C, ECL2, % of highest-labeled residue across all constructs, n = 4 (Cys2), 5 (Cys5, Cys6), 3 (Cys7)", "value": "< 1", "unit": "percentage"},
      {"measurement": "Intraloop labeling", "setting": "F371C, ECL3, n = 3-5", "value": "< 1", "unit": "percentage"},
      {"measurement": "Overall labeling", "setting": "F371C, ECL3, n = 3-5", "value": "< 1", "unit": "percentage"},
      {"measurement": "Intraloop labeling", "setting": "F372C, ECL3, n = 3-5", "value": "< 1", "unit": "percentage"},
      {"measurement": "Overall labeling", "setting": "F372C, ECL3, n = 3-5", "value": "< 1", "unit": "percentage"},
      {"measurement": "Intraloop labeling", "setting": "G284C, ECL2, n = 3-5", "value": "< 1", "unit": "percentage"},
      {"measurement": "Overall labeling", "setting": "G284C, ECL2, n = 3-5", "value": "< 1", "unit": "percentage"},
      {"measurement": "Intraloop labeling", "setting": "I288C, ECL2, n = 3-5", "value": "71.1±10.8", "unit": "percentage"},
      {"measurement": "Overall labeling", "setting": "I288C, ECL2, n = 3-5, Cys5 and Cys7 significant (P < 0.0001)", "value": "69.2±12.2", "unit": "percentage"},
      {"measurement": "Intraloop labeling", "setting": "I294C, ECL2, n = 3-5", "value": "< 1", "unit": "percentage"},
      {"measurement": "Overall labeling", "setting": "I294C, ECL2, n = 3-5", "value": "< 1", "unit": "percentage"},
      {"measurement": "Intraloop labeling", "setting": "I297C, ECL2, n = 3-5", "value": "< 1", "unit": "percentage"},
      {"measurement": "Overall labeling", "setting": "I297C, ECL2, n = 3-5", "value": "< 1", "unit": "percentage"},
      {"measurement": "Intraloop labeling", "setting": "I368C, ECL3, n = 3-5", "value": "< 1", "unit": "percentage"},
      {"measurement": "Overall labeling", "setting": "I368C, ECL3, n = 3-5", "value": "< 1", "unit": "percentage"},
      {"measurement": "Intraloop labeling", "setting": "L280C, ECL2, n = 3-5", "value": "< 1", "unit": "percentage"},
      {"measurement": "Overall labeling", "setting": "L280C, ECL2, n = 3-5", "value": "< 1", "unit": "percentage"},
      {"measurement": "Intraloop labeling", "setting": "L370C, ECL3, n = 3-5", "value": "< 1", "unit": "percentage"},
      {"measurement": "Overall labeling", "setting": "L370C, ECL3, n = 3-5", "value": "< 1", "unit": "percentage"},
      {"measurement": "Intraloop labeling", "setting": "L374C, ECL3, n = 3-5", "value": "77.3±7.7", "unit": "percentage"},
      {"measurement": "Overall labeling", "setting": "L374C, ECL3, n = 3-5, Cys5, Cys6, Cys7 significant (P < 0.001)", "value": "69.8±7.5", "unit": "percentage"},
      {"measurement": "Intraloop labeling", "setting": "M366C, ECL3, n = 3-5", "value": "59.9±11.0", "unit": "percentage"},
      {"measurement": "Overall labeling", "setting": "M366C, ECL3, n = 3-5, Cys5 significant (P < 0.0001)", "value": "55.3±12.0", "unit": "percentage"},
      {"measurement": "Intraloop labeling", "setting": "N289C, ECL2, n = 3-5", "value": "< 1", "unit": "percentage"},
      {"measurement": "Overall labeling", "setting": "N289C, ECL2, n = 3-5", "value": "< 1", "unit": "percentage"},
      {"measurement": "Intraloop labeling", "setting": "N291C, ECL2, n = 3-5", "value": "< 1", "unit": "percentage"},
      {"measurement": "Overall labeling", "setting": "N291C, ECL2, n = 3-5", "value": "< 1", "unit": "percentage"},
      {"measurement": "Intraloop labeling", "setting": "P362C, ECL3, n = 3-5", "value": "20.3±19.9", "unit": "percentage"},
      {"measurement": "Overall labeling", "setting": "P362C, ECL3, n = 3-5", "value": "19.3±19.0", "unit": "percentage"},
      {"measurement": "Intraloop labeling", "setting": "Q369C, ECL3, n = 3-5", "value": "21.6±13.4", "unit": "percentage"},
      {"measurement": "Overall labeling", "setting": "Q369C, ECL3, n = 3-5", "value": "21.6±13.5", "unit": "percentage"},
      {"measurement": "Intraloop labeling", "setting": "S293C, ECL2, n = 3-5", "value": "< 1", "unit": "percentage"},
      {"measurement": "Overall labeling", "setting": "S293C, ECL2, n = 3-5", "value": "< 1", "unit": "percentage"},
      {"measurement": "Intraloop labeling", "setting": "S361C, ECL3, n = 3-5", "value": "< 1", "unit": "percentage"},
      {"measurement": "Overall labeling", "setting": "S361C, ECL3, n = 3-5", "value": "< 1", "unit": "percentage"},
      {"measurement": "Intraloop labeling", "setting": "V283C, ECL2, n = 3-5", "value": "< 1", "unit": "percentage"},
      {"measurement": "Overall labeling", "setting": "V283C, ECL2, n = 3-5", "value": "< 1", "unit": "percentage"},
      {"measurement": "Intraloop labeling", "setting": "W286C, ECL2, n = 3-5", "value": "< 1", "unit": "percentage"},
      {"measurement": "Overall labeling", "setting": "W286C, ECL2, n = 3-5", "value": "< 1", "unit": "percentage"},
      {"measurement": "Intraloop labeling", "setting": "W295C, ECL2, n = 3-5", "value": "79.1±16.7", "unit": "percentage"},
      {"measurement": "Overall labeling", "setting": "W295C, ECL2, n = 3-5, Cys2, Cys5, Cys7 significant (P < 0.0001)", "value": "78.3±17.3", "unit": "percentage"},
      {"measurement": "Intraloop labeling", "setting": "W296C, ECL2, n = 3-5", "value": "< 1", "unit": "percentage"},
      {"measurement": "Overall labeling", "setting": "W296C, ECL2, n = 3-5, Cys6 significant (P = 0.0003)", "value": "< 1", "unit": "percentage"},
      {"measurement": "cysteine trapping in ECL3, in words", "setting": "WT (earlier work) and non-dimerizing SecR", "value": "labeled ECL3 residues"}
    ]}
  ]
}
